Target: T1, SHP2 protein (Homo sapiens, UniProt Q06124)
T1 sequence (Q06124 1-593): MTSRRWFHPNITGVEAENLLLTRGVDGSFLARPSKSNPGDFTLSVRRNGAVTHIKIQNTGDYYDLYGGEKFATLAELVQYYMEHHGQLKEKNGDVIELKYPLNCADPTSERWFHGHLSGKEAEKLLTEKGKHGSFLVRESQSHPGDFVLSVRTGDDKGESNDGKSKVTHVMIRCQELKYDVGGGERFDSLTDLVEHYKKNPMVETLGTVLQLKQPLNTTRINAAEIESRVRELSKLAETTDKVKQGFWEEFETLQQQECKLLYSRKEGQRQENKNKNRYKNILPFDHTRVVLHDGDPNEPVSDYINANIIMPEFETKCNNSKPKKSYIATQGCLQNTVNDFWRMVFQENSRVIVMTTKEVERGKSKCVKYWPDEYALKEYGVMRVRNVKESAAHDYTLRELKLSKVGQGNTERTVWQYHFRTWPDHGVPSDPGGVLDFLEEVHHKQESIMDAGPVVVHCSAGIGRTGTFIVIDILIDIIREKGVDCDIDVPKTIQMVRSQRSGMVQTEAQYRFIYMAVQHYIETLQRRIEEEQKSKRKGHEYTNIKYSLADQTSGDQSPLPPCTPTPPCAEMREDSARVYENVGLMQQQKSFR
Assay: Measurement of SHP2 protein degradation in MV-4-11 cells (western blotting)
Type: cell-based
Parameters: endogenous in cells
Settings: harvested after 24 hours
Description: MV-4-11 cells were treated with the synthesized Example compounds, and the amount of SHP2 protein present in the cells was measured using western blotting detection. The protocol for the experiment conducted using MV-4-11 cells is as follows.
[Culture] MV-4-11 cells were resuspended in IMDM MEDIUM (Hyclone, SH30228.01), 5% FBS (Hyclone, SV30207.02), 1% Penicillin-streptomycin (Welgene, LS 202-02) media and seeded at 1×10^6/mL in 12-well plates (1 mL each).
[Compound treatment]12-well plates were treated as follows. 10 mM stock dissolved in DMSO was serially diluted 1/100 or 1/10 with media, and the compounds were treated to the cells at a final concentration of 0.01, 0.1, 1 μM or 0.001, 0.01, 0.1 μM, and harvested after 24 hours. For the negative control group, DMSO diluted 1/100 or 1/1000 in media was added (3 μL DMSO+297 μL media or 1 μL DMSO+999 μL media).
[Harvest] Each well was pipetted with a 1 mL pipette, collected in a 1.5 mL microtube, and centrifuged (500 g, 5 min, 4° C.). The supernatant was removed, washed with PBS, and centrifuged again (500 g, 5 min, 4° C.). The supernatant was removed and a pellet was prepared.
[Cell lysis and sample preparation] Lysis buffer was prepared as follows. RIPA buffer (Biosesang, RC2038-050-00)+0.5 mM PMSF (SIGMA, P7626)+1× Protease/Phosphatase Inhibitor (Cell signaling, 5872S) were added at 50 μL per tube and incubated on ice for 30 minutes (vortexed at 0 and 30 minutes). After sonication (10 sec pulse, 30 sec rest, 5 cycles, 70% amplification) and centrifugation (15,000 g, 15 min, 4° C.), only the supernatant was transferred to a microtube. RIPA buffer 7.5 μL and sample 2.5 μL were added to a 96-well plate to dilute to 1/4, and then BCA Protein Assay Kit (iNtRON, 21071) A and B were mixed in a 50:1 ratio and 200 μL each was added. After that, the plate was incubated at 37° C. for 30 minutes and left at room temperature for 10 minutes. After shaking for 10 seconds with a SYNERGY H1 microplate reader from BioTek, the absorbance was measured at 562 nm. The protein was quantified using the measured value to prepare a sample, which was then incubated at 70° C. for 10 minutes. The sample buffer used at this time is a mixture of NuPAGE or Bolt 4× sample buffer (Invitrogen) and each 10× sample reducing agent according to the gel to be used, and RIPA buffer was used for protein dilution.
[Western blotting detection] Equal amounts of samples were loaded onto NuPAGE or Bolt Bis-tris 4-12% gradient gels and run (200 V, 35 min). This was transferred to […] NC membranes using Trans-blot Turbo (BIO-RAD) (1.3 A constant, 25 V limit, 15 min), and was blocked at room temperature for 1 hour with Skim milk or Intercept Blocking Buffer (LI-COR, 927-60001):0.1% TBST=1:1. Anti-SHPTP2 Mouse (1:500 in 2% BSA/0.2% TBST, size: 70 kDa, Santacruz sc-7384) was incubated overnight at 4° C., and Anti-GAPDH Rabbit (1:2,000 in 2% BSA/0.2% TBST, size: 37 kDa, CST #2118) was incubated at room temperature for 1.5 hours or 3 hours. After washing three times for 5 minutes each with 0.2% TBST washing buffer, secondary antibodies Anti-Mouse IgG (1:5,000 in 2% BSA/0.2% TBST, CST) and IRDye® 680RD Goat anti-Rabbit IgG Secondary Antibody (1:10,000 in 2% BSA/0.2% TBST, LI-COR 926-68071) were added, and incubated on a rocker at room temperature for 45 minutes. The resultants were washed five times for 5 minutes each with 0.2% TBST washing buffer, and detected using LI-COR's Odyssey. GAPDH was detected with a 700 nm channel, and SHPTP2 was detected using SuperSignal West Pico PLUS Chemiluminescent Substrate.

| SMILES | SHP2% degradation (0.01 μM) | SHP2% degradation (0.1 μM) |
| --- | --- | --- |
| Cc1ncsc1-c1ccc(CNC(=O)[C@@H]2C[C@@H](O)CN2C(=O)[C@@H](NC(=O)C2(F)CC2)C(C)(C)C)c(OC2CCN(C[C@H]3CC[C@H](Nc4nccc(Sc5cnc(N6CCC(C)(CN)CC6)cn5)c4Cl)CC3)CC2)c1 [Example 7, (2S,4R)—N-(2-((1-(((1R,4S)-4-((4-((5-(4-(aminomethyl)-4-methylpiperidin-1-yl)pyrazin-2-yl)thio)-3-chloropyridin-2-yl)amino)cyclohexyl)methyl)piperidin-4-yl)oxy)-4-(4-methylthiazol-5-yl)benzyl)-1-((S)-2-(1-fluorocyclopropane-1-carboxamido)-3,3-dimethylbutanoyl)-4-hydroxypyrrolidine-2-carboxamide] | 10.1% | 55.4% |
| Cc1ncsc1-c1ccc(CNC(=O)[C@@H]2C[C@@H](O)CN2C(=O)[C@@H](NC(=O)C2(F)CC2)C(C)(C)C)c(OCCN2CCN(CC3CCN(c4nccc(Sc5cnc(N6CCC(C)(CN)CC6)cn5)c4Cl)CC3)CC2)c1 [Example 8, (2S,4R)—N-(2-(2-(4-((1-(4-((5-(4-(aminomethyl)-4-methylpiperidin-1-yl)pyrazin-2-yl)thio)-3-chloropyridin-2-yl)piperidin-4-yl)methyl)piperazin-1-yl)ethoxy)-4-(4-methylthiazol-5-yl)benzyl)-1-((S)-2-(1-fluorocyclopropane-1-carboxamido)-3,3-dimethylbutanoyl)-4-hydroxypyrrolidine-2-carboxamide] | 11.7% | 81.9% |
| Cc1ncsc1-c1ccc(CNC(=O)[C@@H]2C[C@@H](O)CN2C(=O)[C@@H](NC(=O)C2(F)CC2)C(C)(C)C)c(OC2CCN(CC3CCN(c4nccc(Sc5cnc(N6CCC(C)(CN)CC6)cn5)c4Cl)CC3)CC2)c1 [Example 9, (2S,4R)—N-(2-((1-((1-(4-((5-(4-(aminomethyl)-4-methylpiperidin-1-yl)pyrazin-2-yl)thio)-3-chloropyridin-2-yl)piperidin-4-yl)methyl)piperidin-4-yl)oxy)-4-(4-methylthiazol-5-yl)benzyl)-1-((S)-2-(1-fluorocyclopropane-1-carboxamido)-3,3-dimethylbutanoyl)-4-hydroxypyrrolidine-2-carboxamide] | 4.0% | 81.1% |
| Cc1ncsc1-c1ccc(CNC(=O)[C@@H]2C[C@@H](O)CN2C(=O)[C@@H](NC(=O)C2(F)CC2)C(C)(C)C)c(O[C@H]2CC[C@H](C(=O)N3CC(Nc4cccc(Sc5cnc(N6CCC(C)(CN)CC6)cn5)c4Cl)C3)CC2)c1 [Example 11, (2S,4R)—N-(2-(((1R,4S)-4-(3-((3-((5-(4-(aminomethyl)-4-methylpiperidin-1-yl)pyrazin-2-yl)thio)-2-chlorophenyl)amino)azetidine-1-carbonyl)cyclohexyl)oxy)-4-(4-methylthiazol-5-yl)benzyl)-1-((S)-2-(1-fluorocyclopropane-1-carboxamido)-3,3-dimethylbutanoyl)-4-hydroxypyrrolidine-2-carboxamide] | 83% | 97.9% |
| Cc1ncsc1-c1ccc(CNC(=O)[C@@H]2C[C@@H](O)CN2C(=O)[C@@H](NC(=O)C2(F)CC2)C(C)(C)C)c(O[C@H]2CC[C@H](C(=O)N3CC(Nc4cccc(Sc5cnc(N6CCC(C)(N)CC6)cn5)c4Cl)C3)CC2)c1 [Example 12, (2S,4R)—N-(2-(((1R,4S)-4-(3-((3-((5-(4-amino-4-methylpiperidin-1-yl)pyrazin-2-yl)thio)-2-chlorophenyl)amino)azetidine-1-carbonyl)cyclohexyl)oxy)-4-(4-methylthiazol-5-yl)benzyl)-1-((S)-2-(1-fluorocyclopropane-1-carboxamido)-3,3-dimethylbutanoyl)-4-hydroxypyrrolidine-2-carboxamide] | 83.7% | 98.6% |
| Cc1ncsc1-c1ccc(CNC(=O)[C@@H]2C[C@@H](O)CN2C(=O)[C@@H](NC(=O)C2(F)CC2)C(C)(C)C)c(O[C@H]2CC[C@H](C(=O)N3CC(Nc4cccc(Sc5cnc(N6CCC7(CC6)CO[C@@H](C)[C@H]7N)cn5)c4Cl)C3)CC2)c1 [Example 13, (2S,4R)—N-(2-(((1R,4S)-4-(3-((3-((5-((3S,4S)-4-amino-3-methyl-2-oxa-8-azaspiro[4.5]decan-8-yl)pyrazin-2-yl)thio)-2-chlorophenyl)amino)azetidine-1-carbonyl)cyclohexyl)oxy)-4-(4-methylthiazol-5-yl)benzyl)-1-((S)-2-(1-fluorocyclopropane-1-carboxamido)-3,3-dimethylbutanoyl)-4-hydroxypyrrolidine-2-carboxamide] | 93.8% | 99.5% |
| Cc1ncsc1-c1ccc(CNC(=O)[C@@H]2C[C@@H](O)CN2C(=O)[C@@H](NC(=O)C2(F)CC2)C(C)(C)C)c(O[C@H]2CC[C@H](C(=O)N3CC(Nc4cccc(Sc5cnc(N6CCC7(CC6)Cc6ccccc6[C@H]7N)cn5)c4Cl)C3)CC2)c1 [Example 14, (2S,4R)—N-(2-(((1R,4S)-4-(3-((3-((5-((S)-1-amino-1,3-dihydrospiro[indene-2,4′-piperidin]-1′-yl)pyrazin-2-yl)thio)-2-chlorophenyl)amino)azetidine-1-carbonyl)cyclohexyl)oxy)-4-(4-methylthiazol-5-yl)benzyl)-1-((S)-2-(1-fluorocyclopropane-1-carboxamido)-3,3-dimethylbutanoyl)-4-hydroxypyrrolidine-2-carboxamide] | 1.2% | 85.1% |
| Cc1ncsc1-c1ccc(CNC(=O)[C@@H]2C[C@@H](O)CN2C(=O)[C@@H](NC(=O)C2(F)CC2)C(C)(C)C)c(O[C@H]2CC[C@H](C(=O)N3CC(Nc4cccc(Oc5cnc(N6CCC(C)(CN)CC6)cn5)c4Cl)C3)CC2)c1 [Example 16, (2S,4R)—N-(2-(((1R,4S)-4-(3-((3-((5-(4-(aminomethyl)-4-methylpiperidin-1-yl)pyrazin-2-yl)oxy)-2-chlorophenyl)amino)azetidine-1-carbonyl)cyclohexyl)oxy)-4-(4-methylthiazol-5-yl)benzyl)-1-((S)-2-(1-fluorocyclopropane-1-carboxamido)-3,3-dimethylbutanoyl)-4-hydroxypyrrolidine-2-carboxamide] | −30.1% | 94.3% |
